Laboratory results: ChEMBL document CHEMBL3046835, “Insecticidal activity influence of beta-cypermethrin on the pathogenicity of Beauveria bassiana against Aleurodicus disperses” (Crop Prot, 2013)
≈ marks a conversion by molar mass, not a printed value.

Columns and labels:
Beauveria bassiana [1] = assay: Inhibition of Beauveria bassiana Bb-N1 mycelial growth at 8 mg/L measured at 27 +/-2 degC after 10 days (reference value: 2.4 +/-0.19%); format: organism-based; design: scale not given: the % may be the effect or the level left; conditions: in vivo, 240 h
Aleurodicus dispersus [2] = assay: Insecticidal activity against third-instar nymph stage of Aleurodicus dispersus in guava plant leaves assessed as mortality at 8 mg/L applied via hand sprayer measured after 6 days under field conditions (reference value: 3.5%); format: functional; conditions: 144 h
Aleurodicus dispersus [3] = assay: Insecticidal activity against third-instar nymph stage of Aleurodicus dispersus in guava plant leaves assessed as mortality at 2 mg/L applied via hand sprayer measured after 6 days under field conditions (reference value: 3.5%); format: functional; conditions: 144 h
Beauveria bassiana [4] = assay: Effect on Beauveria bassiana Bb-N1 conidial germination at 10 mg/L measured at 27 +/-2 degC after 24 hr (reference value: 94.85 +/-2.13%); format: ADME, organism-based; conditions: in vivo
Aleurodicus dispersus [5] = assay: Insecticidal activity against third-instar nymph stage of Aleurodicus dispersus in guava leaves assessed as mortality treated for 15 s measured at 27 +/-2 degC after 24 hr; format: functional
Aleurodicus dispersus [6] = assay: Insecticidal activity against third-instar nymph stage of Aleurodicus dispersus in guava plant leaves assessed as mortality at 4 mg/l measured after 6 days under laboratory conditions (reference value: 3%); format: functional; conditions: 144 h
Aleurodicus dispersus [7] = assay: Insecticidal activity against third-instar nymph stage of Aleurodicus dispersus in guava plant leaves assessed as mortality at 4 mg/l measured after 3 days in presence of 10^8 Beauveria bassiana conidial suspension under laboratory conditions (reference value: 24.3 +/-1.03%); format: functional; conditions: 72 h
Aleurodicus dispersus [8] = assay: Insecticidal activity against third-instar nymph stage of Aleurodicus dispersus in guava plant leaves assessed as mortality at 8 mg/l measured after 6 days in presence of 10^8 Beauveria bassiana conidial suspension under laboratory conditions (reference value: 32.8 +/-2.39%); format: functional; conditions: 144 h
Aleurodicus dispersus [9] = assay: Insecticidal activity against third-instar nymph stage of Aleurodicus dispersus in guava plant leaves assessed as mortality at 2 mg/l measured after 6 days under laboratory conditions (reference value: 3%); format: functional; conditions: 144 h
Aleurodicus dispersus [10] = assay: Insecticidal activity against third-instar nymph stage of Aleurodicus dispersus in guava plant leaves assessed as mortality at 2 mg/l measured after 9 days in presence of 10^8 Beauveria bassiana conidial suspension under laboratory conditions (reference value: 45.7 +/-3.18%); format: functional; conditions: 216 h
Aleurodicus dispersus [11] = assay: Insecticidal activity against third-instar nymph stage of Aleurodicus dispersus in guava plant leaves assessed as mortality at 2 mg/L applied via hand sprayer measured after 3 days in presence of 10^8 Beauveria bassiana conidial suspension under field conditions (reference value: 22.2 +/-3.15%); format: functional; conditions: 72 h
Aleurodicus dispersus [12] = assay: Insecticidal activity against third-instar nymph stage of Aleurodicus dispersus in guava leaves assessed as mortality at 2.5 mg/l treated for 15 s measured at 27 +/-2 degC after 24 hr (reference value: 2%); format: functional
Aleurodicus dispersus [13] = assay: Insecticidal activity against third-instar nymph stage of Aleurodicus dispersus in guava plant leaves assessed as mortality at 8 mg/L applied via hand sprayer measured after 9 days under field conditions (reference value: 4%); format: functional; conditions: 216 h
Aleurodicus dispersus [14] = assay: Insecticidal activity against third-instar nymph stage of Aleurodicus dispersus in guava plant leaves assessed as mortality at 4 mg/L applied via hand sprayer measured after 3 days under field conditions (reference value: 3%); format: functional; conditions: 72 h
Beauveria bassiana [15] = assay: Inhibition of Beauveria bassiana Bb-N1 mycelial growth at 2 mg/L measured at 27 +/-2 degC after 10 days (reference value: 2.4 +/-0.19%); format: organism-based; design: scale not given: the % may be the effect or the level left; conditions: in vivo, 240 h
Aleurodicus dispersus [16] = assay: Insecticidal activity against third-instar nymph stage of Aleurodicus dispersus in guava leaves assessed as mortality at 10 mg/l treated for 15 s measured at 27 +/-2 degC after 48 hr (reference value: 3%); format: functional
Beauveria bassiana [17] = assay: Effect on Beauveria bassiana Bb-N1 conidial germination at 2 mg/L measured at 27 +/-2 degC after 24 hr (reference value: 94.85 +/-2.13%); format: ADME, organism-based; conditions: in vivo
Aleurodicus dispersus [18] = assay: Insecticidal activity against third-instar nymph stage of Aleurodicus dispersus in guava plant leaves assessed as mortality at 8 mg/l measured after 3 days in presence of 10^8 Beauveria bassiana conidial suspension under laboratory conditions (reference value: 24.3 +/-1.03%); format: functional; conditions: 72 h
Aleurodicus dispersus [19] = assay: Insecticidal activity against third-instar nymph stage of Aleurodicus dispersus in guava plant leaves assessed as mortality at 8 mg/L applied via hand sprayer measured after 9 days in presence of 10^8 Beauveria bassiana conidial suspension under field conditions (reference value: 42.3 +/-3.58%); format: functional; conditions: 216 h
Beauveria bassiana [20] = assay: Inhibition of Beauveria bassiana Bb-N1 mycelial growth at 4 mg/L measured at 27 +/-2 degC after 10 days (reference value: 2.4 +/-0.19%); format: organism-based; design: scale not given: the % may be the effect or the level left; conditions: in vivo, 240 h
Aleurodicus dispersus [21] = assay: Insecticidal activity against third-instar nymph stage of Aleurodicus dispersus in guava leaves assessed as mortality at 20 mg/l treated for 15 s measured at 27 +/-2 degC after 48 hr (reference value: 3%); format: functional
Aleurodicus dispersus [22] = assay: Insecticidal activity against third-instar nymph stage of Aleurodicus dispersus in guava plant leaves assessed as mortality at 2 mg/L applied via hand sprayer measured after 6 days in presence of 10^8 Beauveria bassiana conidial suspension under field conditions (reference value: 26.9 +/-3.04%); format: functional; conditions: 144 h
Aleurodicus dispersus [23] = assay: Insecticidal activity against third-instar nymph stage of Aleurodicus dispersus in guava leaves assessed as mortality at 2.5 mg/l treated for 15 s measured at 27 +/-2 degC after 48 hr (reference value: 3%); format: functional
Aleurodicus dispersus [24] = assay: Insecticidal activity against third-instar nymph stage of Aleurodicus dispersus in guava plant leaves assessed as mortality at 4 mg/L applied via hand sprayer measured after 6 days in presence of 10^8 Beauveria bassiana conidial suspension under field conditions (reference value: 26.9 +/-3.04%); format: functional; conditions: 144 h
Aleurodicus dispersus [25] = assay: Insecticidal activity against third-instar nymph stage of Aleurodicus dispersus in guava leaves assessed as mortality at 20 mg/l treated for 15 s measured at 27 +/-2 degC after 24 hr (reference value: 2%); format: functional
Aleurodicus dispersus [26] = assay: Insecticidal activity against third-instar nymph stage of Aleurodicus dispersus in guava leaves assessed as mortality at 40 mg/l treated for 15 s measured at 27 +/-2 degC after 24 hr (reference value: 2%); format: functional
Aleurodicus dispersus [27] = assay: Insecticidal activity against third-instar nymph stage of Aleurodicus dispersus in guava leaves assessed as mortality at 40 mg/l treated for 15 s measured at 27 +/-2 degC after 48 hr (reference value: 3%); format: functional
Aleurodicus dispersus [28] = assay: Insecticidal activity against third-instar nymph stage of Aleurodicus dispersus in guava plant leaves assessed as mortality at 4 mg/L applied via hand sprayer measured after 9 days in presence of 10^8 Beauveria bassiana conidial suspension under field conditions (reference value: 42.3 +/-3.58%); format: functional; conditions: 216 h
Beauveria bassiana [29] = assay: Effect on Beauveria bassiana Bb-N1 conidial production at <8 mg/L measured at 27 +/-2 degC after 10 days; format: ADME, organism-based; conditions: in vivo, 240 h

`CC1(C)[C@H](C=C(Cl)Cl)[C@H]1C(=O)O[C@@H](C#N)c1cccc(Oc2ccccc2)c1` [BETA-CYPERMETHRIN] showed an Activity (Beauveria bassiana [1]) of 4.4%, a mortality at 8 µg/mL (Aleurodicus dispersus [2]) of 29.4% and a mortality at 2 µg/mL (Aleurodicus dispersus [3]) of 20.9%. For the same molecule, the germination rate (Beauveria bassiana [4]) was 89.18%, the LC95 (Aleurodicus dispersus [5]) was 1551.51 µg/mL (≈ 3730 µM) and the LC50 (Aleurodicus dispersus [5]; Aleurodicus dispersus, Nymph stage, 24 h) was 50 µg/mL (≈ 120 µM). It also gave a mortality at 4 µg/mL (Aleurodicus dispersus [6]) of 34.1%, a mortality at 4 µg/mL (Aleurodicus dispersus [7]) of 74.3% and a mortality at 8 µg/mL (Aleurodicus dispersus [8]) of 80.6%. It also gave a mortality at 2 µg/mL (Aleurodicus dispersus [9]) of 28.7%, a mortality at 2 µg/mL (Aleurodicus dispersus [10]) of 75.3% and a mortality at 2 µg/mL (Aleurodicus dispersus [11]) of 32.3%. For the same molecule, the mortality at 2.5 µg/mL (Aleurodicus dispersus [12]) was 9.1%, the mortality at 8 µg/mL (Aleurodicus dispersus [13]) was 29.4% and the mortality at 4 µg/mL (Aleurodicus dispersus [14]) was 26.7%. For the same molecule, the Activity (Beauveria bassiana [15]) was 2.7%, the mortality at 10 µg/mL (Aleurodicus dispersus [16]) was 47.8% and the germination rate (Beauveria bassiana [17]) was 93.78%. For the same molecule, the mortality at 8 µg/mL (Aleurodicus dispersus [18]) was 76.1%, the mortality at 8 µg/mL (Aleurodicus dispersus [19]) was 63.7% and the Activity (Beauveria bassiana [20]) was 3.1%. It also gave a mortality at 20 µg/mL (Aleurodicus dispersus [21]) of 52.8%, a mortality at 2 µg/mL (Aleurodicus dispersus [22]) of 50.9% and a mortality at 2.5 µg/mL (Aleurodicus dispersus [23]) of 25.2%. The mortality at 4 µg/mL (Aleurodicus dispersus [24]) was 60.5%, the mortality at 20 µg/mL (Aleurodicus dispersus [25]) was 34.5% and the mortality at 40 µg/mL (Aleurodicus dispersus [26]) was 46.6%. For the same molecule, the mortality at 40 µg/mL (Aleurodicus dispersus [27]) was 60.3%, the mortality at 4 µg/mL (Aleurodicus dispersus [28]) was 62.4% and the Activity (Beauveria bassiana [29]) was “Non-toxic”.
